Activity calls are given as the source filed them. No cut-off for these calls is given here.
Tests used:
Beta-secretase 1 [1] = target: T1, Beta-secretase 1 (Homo sapiens, UniProt P56817); experiment: Inhibition of BACE-1
Beta-secretase 1 [2] = target: T1, Beta-secretase 1; experiment: Inhibition of BACE-1 in human HEK293 cells overexpressing APP 695 swedish mutation assessed as inhibition of amyloid beta (1 to 40) production by immunoprecipitation assay; format: cell-based
Plasma [3] = experiment: Drug level in rat plasma at 30 mg/kg, ip; format: ADME, organism-based; parameters: dose 30 mg/kg, route intraperitoneal; settings: in vivo, read-out: Drug uptake
[4] = Permeability from basolateral to apical side of human Caco2 cells; format: ADME, cell-based; settings: Caco-2, read-out: permeability
Brain [5] = experiment: Drug level in rat brain at 100 mg/kg, ip; format: ADME, organism-based; parameters: dose 100 mg/kg, route intraperitoneal; settings: in vivo, read-out: Drug uptake
Beta-secretase 1 [6] = target: T1, Beta-secretase 1; experiment: Displacement of [3H]BMS-599240 from recombinant human BACE-1
[7] = Ratio of drug level in brain to plasma in rat at 100 mg/kg, ip at 5 hrs; format: ADME, organism-based; parameters: dose 100 mg/kg, route intraperitoneal; settings: brain and plasma, read-out: BPR
Beta-secretase 1 [8] = target: T1, Beta-secretase 1; experiment: Inhibition of BACE-1 in human HEK293 cells overexpressing APP 695 swedish mutation assessed as inhibition of amyloid beta (1 to 40) production by ELISA method; format: cell-based
[9] = Fraction unbound in rat plasma at 30 mg/kg, ip; format: ADME, organism-based; parameters: dose 30 mg/kg, route intraperitoneal
Plasma [10] = experiment: Antialzheimer activity in ip dosed rat assessed as reduction in plasma amyloid beta (1 to 40) level measured at 5 hrs post-dose; format: functional
[11] = Efflux ratio of permeability from basolateral to apical side to apical to basolateral side of human Caco2 cells; format: ADME, cell-based; settings: Caco-2
[12] = Permeability from apical to basolateral side of human Caco2 cells; format: ADME, cell-based; settings: Caco-2, read-out: permeability
Rattus norvegicus [13] = experiment: Antialzheimer activity in rat assessed as reduction in brain amyloid beta (1 to 40) level up to 100 mg/kg, ip measured at 5 hrs post-dose; format: functional, organism-based; parameters: dose 100 mg/kg
Rattus norvegicus [14] = experiment: Antialzheimer activity in rat plasma assessed as amyloid beta (1 to 40) level at 3 mg/kg, sc relative to vehicle treated control; format: functional; settings: route subcutaneous
Mus musculus [15] = experiment: Antialzheimer activity in sc dosed P-gp knockout mouse brain assessed as reduction in amyloid beta (1 to 40) level after 5 hrs by ELISA; format: functional
[16] = Ratio of drug level in brain to plasma in rat at 3 mg/kg, sc; format: ADME, organism-based; parameters: dose 3 mg/kg, route subcutaneous; settings: brain and plasma, read-out: BPR
[17] = Fraction unbound in sc dosed rat plasma; format: ADME, organism-based
Plasma [18] = experiment: Total plasma concentration in rat at 100 mg/kg, sc; format: ADME, organism-based; parameters: dose 100 mg/kg, route subcutaneous; settings: in vivo
Rattus norvegicus [19] = experiment: Antialzheimer activity in rat brain assessed as amyloid beta (1 to 40) level at 10 mg/kg, sc relative to vehicle treated control; format: functional; settings: route subcutaneous
[20] = Ratio of drug level in brain to plasma in rat at 100 mg/kg, sc; format: ADME, organism-based; parameters: dose 100 mg/kg, route subcutaneous; settings: brain and plasma, read-out: BPR
Brain [21] = experiment: Drug level in rat brain at 10 mg/kg, sc; format: ADME, organism-based; parameters: dose 10 mg/kg, route subcutaneous; settings: in vivo, read-out: Drug uptake
Brain [22] = experiment: Drug level in rat brain at 3 mg/kg, sc; format: ADME, organism-based; parameters: dose 3 mg/kg, route subcutaneous; settings: in vivo, read-out: Drug uptake
Plasma [23] = experiment: Total plasma concentration in rat at 3 mg/kg, sc; format: ADME, organism-based; parameters: dose 3 mg/kg, route subcutaneous; settings: in vivo
[24] = Ratio of drug level in brain to plasma in rat at 10 mg/kg, sc; format: ADME, organism-based; parameters: dose 10 mg/kg, route subcutaneous; settings: brain and plasma, read-out: BPR
Rattus norvegicus [25] = experiment: Antialzheimer activity in rat brain assessed as amyloid beta (1 to 40) level at 3 mg/kg, sc relative to vehicle treated control; format: functional; settings: route subcutaneous
Rattus norvegicus [26] = experiment: Antialzheimer activity in rat brain assessed as amyloid beta (1 to 40) level at 100 mg/kg, sc relative to vehicle treated control; format: functional; settings: route subcutaneous
Rattus norvegicus [27] = experiment: Antialzheimer activity in rat plasma assessed as amyloid beta (1 to 40) level at 100 mg/kg, sc relative to vehicle treated control; format: functional; settings: route subcutaneous
Plasma [28] = experiment: Total plasma concentration in rat at 10 mg/kg, sc; format: ADME, organism-based; parameters: dose 10 mg/kg, route subcutaneous; settings: in vivo
[29] = Fraction unbound in sc dosed mouse plasma; format: ADME, organism-based
Mus musculus [30] = experiment: Antialzheimer activity in sc dosed P-gp knockout mouse plasma assessed as reduction in amyloid beta (1 to 40) level after 5 hrs by ELISA; format: functional
Rattus norvegicus [31] = experiment: Antialzheimer activity in rat plasma assessed as amyloid beta (1 to 40) level at 10 mg/kg, sc relative to vehicle treated control; format: functional; settings: route subcutaneous
Rattus norvegicus [32] = experiment: Antialzheimer activity in rat plasma assessed as reduction in amyloid beta (1 to 40) level at 3 mg/kg, sc relative to vehicle treated control; format: functional; parameters: scale not given: the % may be the effect or the level left; settings: route subcutaneous
Brain [33] = experiment: Drug level in rat brain at 100 mg/kg, sc; format: ADME, organism-based; parameters: dose 100 mg/kg, route subcutaneous; settings: in vivo, read-out: Drug uptake
Mus musculus [34] = experiment: Antialzheimer activity in wild type mouse brain assessed as reduction in amyloid beta (1 to 40) level up to 100 mg/kg, sc; format: functional, organism-based; parameters: dose 100 mg/kg

T1 sequence (P56817 whole entry): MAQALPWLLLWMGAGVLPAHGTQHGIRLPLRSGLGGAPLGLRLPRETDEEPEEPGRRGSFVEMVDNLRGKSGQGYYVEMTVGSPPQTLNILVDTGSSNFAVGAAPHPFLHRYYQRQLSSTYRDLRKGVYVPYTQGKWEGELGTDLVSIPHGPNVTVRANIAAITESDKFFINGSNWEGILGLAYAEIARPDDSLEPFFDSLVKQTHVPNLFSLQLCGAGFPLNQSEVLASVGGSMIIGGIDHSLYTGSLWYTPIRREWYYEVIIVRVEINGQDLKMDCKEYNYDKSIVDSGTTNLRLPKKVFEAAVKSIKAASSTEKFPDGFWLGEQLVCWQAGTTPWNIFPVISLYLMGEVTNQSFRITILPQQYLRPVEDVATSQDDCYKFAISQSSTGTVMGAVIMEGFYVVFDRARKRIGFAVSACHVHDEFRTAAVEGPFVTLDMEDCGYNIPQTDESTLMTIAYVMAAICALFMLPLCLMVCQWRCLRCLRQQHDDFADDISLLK

## CCC(C)[C@@]1(NC(C)=O)CCN([C@@H](CCc2ccccc2)C(=O)N[C@@H](Cc2cc(F)cc(F)c2)[C@H](O)[C@@H]2Cc3cccc(OC)c3CN2)C1=O (stereo partly drawn)
Beta-secretase 1 [1]
  IC50: 140 nM

## CCC(C)[C@@]1(NC(C)=O)CCN([C@@H](CCc2ccccc2)C(=O)N[C@@H](Cc2cc(F)cc(F)c2)[C@H](O)[C@@H]2Cc3ccccc3CN2)C1=O (stereo partly drawn)
Beta-secretase 1 [1]
  IC50: 600 nM

## CC[C@@H](C)[C@H](N)C(=O)N[C@@H](CCc1ccccc1)C(=O)N[C@@H](CC(C)C)[C@@H](O)C[C@@H](C)C(=O)NCCCCc1ccccc1
Beta-secretase 1 [1]
  IC50: 88 nM

## CC(=O)N[C@]1(CC(C)C)CCN([C@@H](CCc2ccccc2)C(=O)N[C@@H](Cc2cc(F)cc(F)c2)[C@H](O)C2Cc3ccccc3CN2)C1=O (stereo partly drawn)
Beta-secretase 1 [2]
  IC50: 10 nM
Beta-secretase 1 [1]
  IC50: 8 nM

## CCCN(CCC)C(=O)c1cccc(C(=O)N[C@@H](Cc2cc(F)cc(F)c2)[C@H](O)[C@H]2Cc3ccccc3CN2)c1 (stereo in doubt; 15a)
Beta-secretase 1 [1]
  IC50: 1100 nM

## CCCN(CCC)C(=O)c1cccc(C(=O)N[C@@H](Cc2cc(F)cc(F)c2)[C@H](O)[C@H]2Cc3ccccc3CN2)c1 (stereo in doubt; 15b)
Beta-secretase 1 [1]
  IC50: 1600 nM

## CCC(C)[C@@]1(NC(C)=O)CCN([C@@H](CCc2ccccc2)C(=O)N[C@@H](Cc2cc(F)cc(F)c2)[C@H](O)CNCc2cccc(OC)c2)C1=O (stereo partly drawn)
Plasma [3]
  concentration: 3700 nM
[4]
  Papp B→A: 11.4 ×10⁻⁶ cm/s
Brain [5]
  concentration: 113 nM
Beta-secretase 1 [6]
  IC50: 2 nM
[7]
  Kp at 5 h: < 0.05
Beta-secretase 1 [8]
  IC50: 3 nM
[9]
  fraction unbound: 0.011
Plasma [10]
  Activity: Dose-dependent effect
  ED50: 30 mg/kg
[11]
  efflux ratio: 1.5
[12]
  Papp A→B: 7.5 ×10⁻⁶ cm/s
Rattus norvegicus [13]
  Activity: inactive

## CCCS[C@H]1CN[C@@H]([C@@H](O)[C@H](Cc2cc(F)cc(F)c2)NC(=O)[C@H](CCc2ccccc2)N2CC[C@](NC(C)=O)(C(C)CC)C2=O)C1 (stereo partly drawn)
Beta-secretase 1 [2]
  IC50: 15 nM

## CCC(C)[C@@]1(NC(C)=O)CCN([C@@H](CCc2ccccc2)C(=O)N[C@@H](Cc2cc(F)cc(F)c2)[C@H](O)C2Cc3cccc(O)c3CN2)C1=O (stereo partly drawn)
Beta-secretase 1 [1]
  IC50: 870 nM

## CCCCN(C)C(=O)n1cc(C(=O)N[C@@H](Cc2cc(F)cc(F)c2)[C@H](O)[C@H]2Cc3ccccc3CN2)c2cccnc21
Beta-secretase 1 [1]
  IC50: 1200 nM

## CCC(C)[C@@]1(NC(C)=O)CCN([C@@H](CCc2ccccc2)C(=O)N[C@@H](Cc2ccccc2)[C@H](O)CNCc2cccc(OC)c2)C1=O (stereo partly drawn)
Beta-secretase 1 [6]
  IC50: 5 nM
Beta-secretase 1 [8]
  IC50: 11 nM

## CCC(C)[C@@]1(NC(C)=O)CCN([C@@H](CCc2ccccc2)C(=O)N[C@@H](Cc2cc(F)cc(F)c2)[C@H](O)[C@H]2C[C@@H](S(=O)(=O)Cc3ccc(F)cc3)CN2)C1=O (stereo partly drawn)
Beta-secretase 1 [2]
  IC50: 3 nM

## CCC(C)[C@@]1(NC(C)=O)CCN([C@@H](CCc2ccccc2)C(=O)N[C@@H](Cc2cc(F)cc(F)c2)[C@H](O)C2Cc3cccc(OC)c3CN2)C1=O (stereo partly drawn)
Beta-secretase 1 [2]
  IC50: 20 nM
Beta-secretase 1 [1]
  IC50: 4 nM

## CCCOc1cccc2c1CNC([C@@H](O)[C@H](Cc1cc(F)cc(F)c1)NC(=O)[C@H](CCc1ccccc1)N1CC[C@](NC(C)=O)(C(C)CC)C1=O)C2 (stereo partly drawn)
Beta-secretase 1 [2]
  IC50: 140 nM
Beta-secretase 1 [1]
  IC50: 17 nM

## CCC(C)[C@@]1(N)CCN([C@@H](CCc2ccccc2)C(=O)N[C@@H](CC(C)C)[C@@H](O)C[C@@H](C)C(=O)NCCCCc2ccccc2)C1=O (stereo partly drawn)
Beta-secretase 1 [1]
  IC50: 141 nM

## CCCS(=O)(=O)[C@@H]1CN[C@@H]([C@@H](O)[C@H](Cc2cc(F)cc(F)c2)NC(=O)[C@H](CCc2ccccc2)N2CC[C@](NC(C)=O)(C(C)CC)C2=O)C1 (stereo partly drawn)
Beta-secretase 1 [2]
  IC50: 45 nM

## CCCC[C@H]1CCN([C@@H](C)C(=O)N[C@@H](Cc2cc(F)cc(F)c2)[C@H](O)[C@H]2Cc3ccccc3CN2)C1=O
Beta-secretase 1 [1]
  IC50: 1600 nM

## CCCN(CCC)C(=O)c1cc(C(=O)N[C@@H](Cc2cc(F)cc(F)c2)[C@H](O)[C@H]2C[C@@H](S(=O)(=O)CCC)CN2)cc(-c2ncco2)c1
Beta-secretase 1 [2]
  IC50: 68 nM

## CCC(C)[C@@]1(NC(C)=O)CCN([C@@H](CCc2ccccc2)C(=O)N[C@@H](Cc2cc(F)cc(F)c2)[C@H](O)[C@H]2C[C@@H](S(=O)(=O)c3ccccc3)CN2)C1=O (stereo partly drawn)
Beta-secretase 1 [2]
  IC50: 12 nM

## CCCC[C@@H]1CCN([C@@H](C)C(=O)N[C@@H](Cc2cc(F)cc(F)c2)[C@H](O)[C@H]2C[C@@H](S(=O)(=O)CCC)CN2)C1=O
Beta-secretase 1 [2]
  IC50: > 330 nM

## CCCS(=O)(=O)[C@H]1CN[C@@H]([C@@H](O)[C@H](Cc2cc(F)cc(F)c2)NC(=O)[C@H](CCc2ccccc2)N2CC[C@](NC(C)=O)(C(C)CC)C2=O)C1 (stereo partly drawn)
Beta-secretase 1 [2]
  IC50: 5 nM
[4]
  Papp B→A: 5.8 ×10⁻⁶ cm/s
Rattus norvegicus [14]
  Activity: 28%
Mus musculus [15]
  ED50: 50 mg/kg
[16]
  Kp: 0.32
[17]
  fraction unbound: 0.3
Plasma [18]
  concentration: 5800 nM
Rattus norvegicus [19]
  Activity: 92%
[20]
  Kp: 0.05
Brain [21]
  concentration: 78 nM
Brain [22]
  concentration: 46 nM
Plasma [23]
  concentration: 160 nM
[24]
  Kp: 0.11
Rattus norvegicus [25]
  Activity: 85%
Rattus norvegicus [26]
  Activity: 91%
Rattus norvegicus [27]
  Activity: 15%
Plasma [28]
  concentration: 740 nM
[29]
  fraction unbound: 0.24
Mus musculus [30]
  ED50: 30 mg/kg
Rattus norvegicus [31]
  Activity: 10%
[11]
  efflux ratio: > 4
Rattus norvegicus [32]
  Activity: 72%
[12]
  Papp A→B: < 1.5 ×10⁻⁶ cm/s
Brain [33]
  concentration: 260 nM
Mus musculus [34]
  Activity: inactive

## CCCC[C@H]1CCN([C@@H](CCc2ccccc2)C(=O)N[C@@H](Cc2cc(F)cc(F)c2)[C@H](O)[C@H]2Cc3ccccc3CN2)C1=O
Beta-secretase 1 [1]
  IC50: 1000 nM

## CCC(C)[C@@]1(NC(C)=O)CCN([C@@H](CCc2ccccc2)C(=O)N[C@@H](Cc2cc(F)cc(F)c2)[C@H](O)C2Cc3ccccc3CN2)C1=O (stereo partly drawn)
Beta-secretase 1 [2]
  IC50: 110 nM
Beta-secretase 1 [1]
  IC50: 54 nM
